Data reported in US5763485A, “Method of treating catabolic, gut-associated pathological processes and impaired host defenses” (Brigham and Women's Hospital, priority 1995, dated 1998).
Residues, ends and D or L forms follow the SMILES beside them.

What was measured:
[1] = Urinary excretion and nitrogen balance after laparotomy in dogs; assay type: in vivo, dog; settings: projected intake 0.312 gm N/24 hr/kg
Method: Urine excreted during the 24 hours of infusion was collected in the closed urinary collecting system and stored in acidified, refrigerated containers. Aliquots were stored frozen at -20° C. for batch analysis.
All solutions were infused at the rate of 4 ml/minute/kg. Five control animals received 0.9% saline. Amino acid solutions (Table V) containing BCCA's at three different concentrations (11%, 22%, or 44% of total amino acids) were prepared by adding amino acids to an 8.5% standard amino acid formula, FreAmine III (American McGaw, Irvine, Calif.). The total BCAA infusion rates were 0.46, 0.92, and 1.84 grams/24 hours/kg, respectively. All three amino acid solutions were isonitrogenous, providing approximately 0.624 grams of nitrogen/24 hours/kg, with a constant ratio of valine to leucine to isoleucine (1: 1.38:1.05). Nine animals received an 11% BCAA solution which was made by dissolving a mixture of non-essential amino acids (NEAA) in 2.13% FreAmine III to make a solution that provided 0.624 grams of nitrogen/24 hours/kg. […] Six animals received 4.25% FreAmine III alone (22% BCAA). The final seven animals received 2.13% FreAmine III supplemented with enough BCAA's to make a 44% solution. […] All solutions were sterilized by passage through a 0.22 uM filter (Millipore, Millis, Mass.) and stored overnight at 4° C. prior to administration. […]

[2] = intravenous feeding regimen; cited from earlier work
[3] = Parenteral nutrition after 5-FU injury in rats: intestinal and hematological indices; assay type: in vivo; settings: all drug-treated animals, independent of diet
Method: Rats were catheterized as previously described and after a minimum of 3 hr following recovery from anesthesia, groups of animals received 100, 150 or 200 mg/kg of 5-FU by i.p. injection. […] The nutrition infusion, started 4 hr after 5-FU or saline, was continued for 4 d. at a rate of 46 ml/24 hr.
Blood and intestinal tissue were sampled and prepared for analysis as described in the examples above. The hemoglobin, white blood cell and platelet numbers were determined as measures of the general hematological toxicity of the various doses of 5-FU.
All analyses were performed as previously described in Examples 6 and 7. Statistical analyses were performed using two-way analysis of variance comparing both diets and dose of 5-FU. Unpaired t tests were used to compare two treatment groups at one dose of 5-FU. Differences were considered statistically significant at a p value of <0.05.

[4] = rat
Method: Lactulose is a non-metabolizable sugar that is poorly absorbed from the gastrointestinal tract. In gastrointestinal disorders such as inflammatory bowel disease, lactulose is taken up through gaps in the mucosal membrane, allowing its excretion in the urine. The amount of urinary lactulose is therefore a measure of "leakage" across the gut mucosal barrier (Menzies, Biochem. Soc. Trans. […]:1042-1047 (1974)).
Rats were treated with 5-fluorouracil as described in Example 8, above. Lactulose, 2 ml iso-osmolar solution of 100 mg/ml, was infused by gavage and urine was collected over the subsequent 24 hr and frozen. Urinary lactulose was determined enzymatically as described by Ziegler et al. (Arch. Surg. 123:1313-1319 (1988)).

NC(=O)CC[C@H](N)C(=O)O [Glutamine, glutamine]
Nitrogen balance [1]: -0.386 ± 0.086 gm/24 hr/kg
Nitrogen excretion [1]: 0.709 ± 0.085 gm/24 hr/kg

C[C@H](N)C(=O)N[C@@H](CCC(N)=O)C(=O)O [L-alanyl-L-glutamine] (H-Ala-Gln-OH)
Postoperative nitrogen balance [2]: improve postoperative nitrogen balance

O=c1[nH]cc(F)c(=O)[nH]1 [5-FU, 5-fluorouracil]
Circulating white blood cell and platelet counts [3]: marked decline in the circulating white blood cell and platelet counts
Gut permeability to lactulose [4]: increase gut permeability to lactulose
Time of peak increase in gut permeability [4]: between 24 and 48
